In ChEMBL document CHEMBL4507307 (2021):
Each block holds one compound with its values, some of them ahead of it. The source made the active and inactive calls. The calls are words filed in the database; no cut-off is given here.

Key:
[1] = target: Muscarinic acetylcholine receptor M5 (Homo sapiens) (UniProt P08912); conditions: Compound concentration 10.0 uM
Histamine H1 receptor [2] = target: T1, Histamine H1 receptor (Homo sapiens, UniProt P35367); test: GPCRScan assay: inhibition of H1; design: radioligand conc. used [nm] 0.6 – 2.0, parental cells stable HEK
T1 sequence (P35367 whole entry): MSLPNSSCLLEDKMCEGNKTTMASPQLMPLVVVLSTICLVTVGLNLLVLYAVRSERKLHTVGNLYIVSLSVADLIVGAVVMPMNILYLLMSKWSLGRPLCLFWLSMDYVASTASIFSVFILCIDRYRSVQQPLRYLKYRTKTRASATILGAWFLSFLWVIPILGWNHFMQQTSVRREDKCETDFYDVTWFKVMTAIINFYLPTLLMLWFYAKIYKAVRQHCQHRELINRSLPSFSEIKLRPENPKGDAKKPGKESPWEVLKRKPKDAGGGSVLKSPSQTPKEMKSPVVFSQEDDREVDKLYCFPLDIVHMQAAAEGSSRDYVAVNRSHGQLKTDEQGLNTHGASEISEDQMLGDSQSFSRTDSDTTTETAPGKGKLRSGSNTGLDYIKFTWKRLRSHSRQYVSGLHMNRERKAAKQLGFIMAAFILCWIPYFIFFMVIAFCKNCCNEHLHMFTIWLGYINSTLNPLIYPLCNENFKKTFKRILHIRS

[3] = target: Sodium-dependent serotonin transporter (Homo sapiens) (UniProt P31645); conditions: Compound concentration 10.0 uM
[4] = target: Kappa-type opioid receptor (Homo sapiens, UniProt P41145); conditions: Compound concentration 10.0 uM
Kappa-type opioid receptor, sequence (P41145 whole entry): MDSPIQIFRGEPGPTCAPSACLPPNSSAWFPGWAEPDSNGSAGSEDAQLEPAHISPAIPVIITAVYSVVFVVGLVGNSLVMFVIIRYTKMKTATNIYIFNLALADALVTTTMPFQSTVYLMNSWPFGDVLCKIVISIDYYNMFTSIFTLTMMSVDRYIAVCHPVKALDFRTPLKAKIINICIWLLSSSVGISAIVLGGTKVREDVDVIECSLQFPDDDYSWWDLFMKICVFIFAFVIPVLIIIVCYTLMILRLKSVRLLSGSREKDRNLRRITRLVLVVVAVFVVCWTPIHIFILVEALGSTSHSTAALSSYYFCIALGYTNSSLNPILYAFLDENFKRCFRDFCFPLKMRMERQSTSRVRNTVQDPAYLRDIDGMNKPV

[5] = target: Beta-2 adrenergic receptor (Homo sapiens) (UniProt P07550); conditions: Compound concentration 10.0 uM
[6] = target: Receptor-type tyrosine-protein kinase FLT3 (Homo sapiens, UniProt P36888); test: NanoBRET (SGC Frankfurt) (FLT3)
[7] = target: D(4) dopamine receptor (Homo sapiens) (UniProt P21917); conditions: Compound concentration 10.0 uM
[8] = target: D(1B) dopamine receptor (Homo sapiens) (UniProt P21918); conditions: Compound concentration 10.0 uM
D(1B) dopamine receptor (Homo sapiens), sequence (P21918 whole entry): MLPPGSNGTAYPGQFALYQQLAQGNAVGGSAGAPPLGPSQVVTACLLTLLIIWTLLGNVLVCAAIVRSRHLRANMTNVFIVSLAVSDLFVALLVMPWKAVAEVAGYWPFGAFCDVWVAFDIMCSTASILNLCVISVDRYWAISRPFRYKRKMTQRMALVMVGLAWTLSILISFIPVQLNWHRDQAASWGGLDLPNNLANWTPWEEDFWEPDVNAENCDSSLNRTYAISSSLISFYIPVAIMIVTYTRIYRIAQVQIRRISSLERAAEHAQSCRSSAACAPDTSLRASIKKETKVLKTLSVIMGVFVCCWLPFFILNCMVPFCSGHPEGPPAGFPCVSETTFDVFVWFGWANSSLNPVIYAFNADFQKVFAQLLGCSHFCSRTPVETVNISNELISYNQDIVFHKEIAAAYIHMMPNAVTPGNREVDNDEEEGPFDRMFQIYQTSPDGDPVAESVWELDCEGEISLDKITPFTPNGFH

[9] = target: Histamine H4 receptor (Homo sapiens) (UniProt Q9H3N8); conditions: Compound concentration 10.0 uM
[10] = target: Muscarinic acetylcholine receptor M3 (Homo sapiens) (UniProt P20309); conditions: Compound concentration 10.0 uM
Muscarinic acetylcholine receptor M3 (Homo sapiens), sequence (P20309 whole entry, looked up): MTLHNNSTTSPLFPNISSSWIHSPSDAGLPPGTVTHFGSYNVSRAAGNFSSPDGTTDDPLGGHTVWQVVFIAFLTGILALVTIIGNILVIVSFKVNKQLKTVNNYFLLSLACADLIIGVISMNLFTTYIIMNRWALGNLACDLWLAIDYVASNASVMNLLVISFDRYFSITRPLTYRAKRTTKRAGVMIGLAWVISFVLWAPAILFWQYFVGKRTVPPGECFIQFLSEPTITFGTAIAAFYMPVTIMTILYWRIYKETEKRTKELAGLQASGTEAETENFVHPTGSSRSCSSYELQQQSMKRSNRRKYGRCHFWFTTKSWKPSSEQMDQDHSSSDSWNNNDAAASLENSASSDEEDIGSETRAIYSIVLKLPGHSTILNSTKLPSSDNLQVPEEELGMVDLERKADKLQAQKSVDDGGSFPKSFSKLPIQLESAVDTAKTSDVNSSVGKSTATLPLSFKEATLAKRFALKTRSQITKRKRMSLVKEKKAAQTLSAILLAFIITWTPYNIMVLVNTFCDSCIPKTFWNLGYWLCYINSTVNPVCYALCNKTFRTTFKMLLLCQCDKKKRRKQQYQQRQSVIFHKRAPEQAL

D(3) dopamine receptor = D(3) dopamine receptor (Homo sapiens, UniProt P35462); conditions: Compound concentration 10.0 uM
D(2) dopamine receptor = D(2) dopamine receptor (Homo sapiens, UniProt P14416); conditions: Compound concentration 10.0 uM
[11] = target: Sigma intracellular receptor 2 (Homo sapiens, UniProt Q5BJF2); conditions: Compound concentration 10.0 uM
Sigma intracellular receptor 2, sequence (Q5BJF2 whole entry): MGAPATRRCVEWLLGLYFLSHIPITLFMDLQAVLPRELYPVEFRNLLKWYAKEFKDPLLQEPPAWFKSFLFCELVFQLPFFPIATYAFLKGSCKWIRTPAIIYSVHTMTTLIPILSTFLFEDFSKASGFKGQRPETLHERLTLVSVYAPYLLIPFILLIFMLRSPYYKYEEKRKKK

[12] = target: Alpha-1A adrenergic receptor (Homo sapiens) (UniProt P35348); conditions: Compound concentration 10.0 uM
[13] = target: 5-hydroxytryptamine receptor 2C (Homo sapiens) (UniProt P28335); conditions: Compound concentration 10.0 uM
5-hydroxytryptamine receptor 2C (Homo sapiens), sequence (P28335 whole entry): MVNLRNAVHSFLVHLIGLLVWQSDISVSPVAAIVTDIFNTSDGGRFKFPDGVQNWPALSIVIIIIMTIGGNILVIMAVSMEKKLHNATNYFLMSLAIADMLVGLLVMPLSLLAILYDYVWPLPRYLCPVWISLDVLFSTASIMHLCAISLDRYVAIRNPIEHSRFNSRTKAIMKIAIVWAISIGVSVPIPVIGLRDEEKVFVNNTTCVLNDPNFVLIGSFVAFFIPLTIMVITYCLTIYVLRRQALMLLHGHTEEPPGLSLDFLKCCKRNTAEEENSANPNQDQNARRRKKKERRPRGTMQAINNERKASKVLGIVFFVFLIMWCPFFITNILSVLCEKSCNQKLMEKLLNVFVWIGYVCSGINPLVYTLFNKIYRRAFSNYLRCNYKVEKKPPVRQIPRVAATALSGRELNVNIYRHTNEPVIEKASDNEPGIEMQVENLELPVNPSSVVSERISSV

[14] = target: Serine/threonine-protein kinase SIK2 (Homo sapiens, UniProt Q9H0K1); test: NanoBRET (SGC Frankfurt) (SIK2)
[15] = target: Muscarinic acetylcholine receptor M4 (Homo sapiens) (UniProt P08173); conditions: Compound concentration 10.0 uM
[16] = target: Receptor-type tyrosine-protein kinase FLT3 (Homo sapiens, UniProt P36888, D835V); test: NanoBRET (SGC Frankfurt) (FLT3 (D835V))
[17] = target: Alpha-2C adrenergic receptor (Homo sapiens) (UniProt P18825); conditions: Compound concentration 10.0 uM
[18] = target: 5-hydroxytryptamine receptor 1B (Homo sapiens, UniProt P28222); conditions: Compound concentration 10.0 uM
5-hydroxytryptamine receptor 1B, sequence (P28222 whole entry): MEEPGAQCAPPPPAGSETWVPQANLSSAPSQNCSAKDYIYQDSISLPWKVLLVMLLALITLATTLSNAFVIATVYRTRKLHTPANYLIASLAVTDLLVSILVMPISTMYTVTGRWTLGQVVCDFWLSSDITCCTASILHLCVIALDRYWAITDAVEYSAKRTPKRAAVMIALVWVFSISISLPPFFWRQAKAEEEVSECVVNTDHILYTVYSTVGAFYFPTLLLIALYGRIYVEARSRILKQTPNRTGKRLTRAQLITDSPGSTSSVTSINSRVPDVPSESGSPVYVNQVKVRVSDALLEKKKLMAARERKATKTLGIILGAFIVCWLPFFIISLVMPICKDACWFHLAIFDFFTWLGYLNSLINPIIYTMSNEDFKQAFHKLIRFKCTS

[19] = target: T2, GABA-A receptor; anion channel (Rattus norvegicus) (UniProt O09028+P15431+P18506+P18508+P19969+P20236+P23574+P23576+P28471+P28473+P30191+P62813+P63079+P63138+Q91ZM7+Q9ES14); conditions: Compound concentration 10.0 uM
[20] = target: Sodium-dependent noradrenaline transporter (Homo sapiens) (UniProt P23975); conditions: Compound concentration 10.0 uM
Sodium-dependent noradrenaline transporter (Homo sapiens), sequence (P23975 whole entry): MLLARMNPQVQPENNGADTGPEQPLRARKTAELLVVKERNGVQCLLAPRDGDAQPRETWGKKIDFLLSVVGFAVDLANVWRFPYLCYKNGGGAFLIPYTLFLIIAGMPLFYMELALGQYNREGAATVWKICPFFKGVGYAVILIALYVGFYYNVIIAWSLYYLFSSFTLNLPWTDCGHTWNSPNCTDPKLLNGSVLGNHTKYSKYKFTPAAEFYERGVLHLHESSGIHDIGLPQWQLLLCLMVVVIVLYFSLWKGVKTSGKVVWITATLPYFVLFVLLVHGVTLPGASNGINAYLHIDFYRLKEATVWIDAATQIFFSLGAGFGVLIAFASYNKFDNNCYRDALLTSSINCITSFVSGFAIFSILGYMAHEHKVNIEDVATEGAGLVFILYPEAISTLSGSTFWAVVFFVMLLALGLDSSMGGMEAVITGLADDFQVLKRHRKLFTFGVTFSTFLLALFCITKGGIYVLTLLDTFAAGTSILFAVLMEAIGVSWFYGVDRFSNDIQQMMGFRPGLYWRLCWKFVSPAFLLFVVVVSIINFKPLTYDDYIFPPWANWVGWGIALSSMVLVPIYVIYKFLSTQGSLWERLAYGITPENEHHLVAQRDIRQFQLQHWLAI

[21] = target: Alpha-2B adrenergic receptor (Homo sapiens) (UniProt P18089); conditions: Compound concentration 10.0 uM
[22] = target: 5-hydroxytryptamine receptor 1E (Homo sapiens, UniProt P28566); conditions: Compound concentration 10.0 uM
[23] = target: T2, GABA-A receptor; anion channel (Rattus norvegicus); conditions: Compound concentration 10.0 uM; remark: listed apart in the source
[24] = target: Dual specificity protein kinase CLK1 (Homo sapiens, UniProt P49759); test: NanoBRET (SGC Frankfurt) (CLK1)
[25] = target: Beta-1 adrenergic receptor (Homo sapiens) (UniProt P08588); conditions: Compound concentration 10.0 uM
Beta-1 adrenergic receptor (Homo sapiens), sequence (P08588 whole entry, looked up): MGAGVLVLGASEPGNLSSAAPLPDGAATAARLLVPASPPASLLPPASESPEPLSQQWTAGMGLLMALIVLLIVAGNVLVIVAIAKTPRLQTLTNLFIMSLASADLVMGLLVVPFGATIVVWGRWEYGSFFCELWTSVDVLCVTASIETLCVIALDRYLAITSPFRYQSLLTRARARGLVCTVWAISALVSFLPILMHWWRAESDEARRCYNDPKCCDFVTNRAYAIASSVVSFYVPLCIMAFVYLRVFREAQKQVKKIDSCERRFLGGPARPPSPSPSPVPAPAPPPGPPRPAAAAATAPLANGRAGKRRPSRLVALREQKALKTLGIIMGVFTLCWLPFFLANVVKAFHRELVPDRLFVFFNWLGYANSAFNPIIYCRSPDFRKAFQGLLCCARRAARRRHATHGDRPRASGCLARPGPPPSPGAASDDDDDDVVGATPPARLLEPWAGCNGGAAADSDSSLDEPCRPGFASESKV

[26] = target: Dual specificity protein kinase CLK4 (Homo sapiens, UniProt Q9HAZ1); test: NanoBRET (SGC Frankfurt) (CLK4)
[27] = target: Sigma non-opioid intracellular receptor 1 (Homo sapiens, UniProt Q99720); conditions: Compound concentration 10.0 uM
Histamine H1 receptor [28] = target: T1, Histamine H1 receptor; conditions: Compound concentration 10.0 uM
[29] = target: Muscarinic acetylcholine receptor M2 (Homo sapiens) (UniProt P08172); conditions: Compound concentration 10.0 uM
[30] = target: Sodium-dependent dopamine transporter (Homo sapiens) (UniProt Q01959); conditions: Compound concentration 10.0 uM
Mu-type opioid receptor = Mu-type opioid receptor (Homo sapiens, UniProt P35372); conditions: Compound concentration 10.0 uM
[31] = target: Delta-type opioid receptor (Homo sapiens) (UniProt P41143); conditions: Compound concentration 10.0 uM
[32] = target: 5-hydroxytryptamine receptor 7 (Homo sapiens) (UniProt P34969); conditions: Compound concentration 10.0 uM
[33] = target: 5-hydroxytryptamine receptor 1D (Homo sapiens, UniProt P28221); conditions: Compound concentration 10.0 uM
5-hydroxytryptamine receptor 1D, sequence (P28221 whole entry): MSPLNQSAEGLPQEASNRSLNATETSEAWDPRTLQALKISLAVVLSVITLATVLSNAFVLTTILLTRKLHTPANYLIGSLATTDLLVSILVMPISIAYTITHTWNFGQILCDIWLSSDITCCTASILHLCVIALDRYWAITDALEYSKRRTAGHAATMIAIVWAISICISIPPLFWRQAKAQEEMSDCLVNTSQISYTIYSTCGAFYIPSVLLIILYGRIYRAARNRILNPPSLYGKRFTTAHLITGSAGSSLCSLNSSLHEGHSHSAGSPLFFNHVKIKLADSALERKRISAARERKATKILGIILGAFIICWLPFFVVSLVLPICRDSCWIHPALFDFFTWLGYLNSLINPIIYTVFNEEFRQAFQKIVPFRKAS

[34] = target: 5-hydroxytryptamine receptor 5A (Homo sapiens, UniProt P47898); conditions: Compound concentration 10.0 uM
5-hydroxytryptamine receptor 5A, sequence (P47898 whole entry): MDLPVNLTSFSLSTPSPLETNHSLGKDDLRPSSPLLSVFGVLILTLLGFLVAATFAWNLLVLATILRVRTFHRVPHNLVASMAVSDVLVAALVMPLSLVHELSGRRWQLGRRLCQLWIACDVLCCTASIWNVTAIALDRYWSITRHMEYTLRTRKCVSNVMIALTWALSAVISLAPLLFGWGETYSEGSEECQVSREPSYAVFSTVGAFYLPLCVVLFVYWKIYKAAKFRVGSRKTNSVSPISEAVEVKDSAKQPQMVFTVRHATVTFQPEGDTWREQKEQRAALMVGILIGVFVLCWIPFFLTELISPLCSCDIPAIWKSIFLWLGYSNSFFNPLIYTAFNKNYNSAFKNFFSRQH

Histamine H2 receptor = Histamine H2 receptor (Homo sapiens, UniProt P25021); conditions: Compound concentration 10.0 uM
[35] = target: 5-hydroxytryptamine receptor 2B (Homo sapiens) (UniProt P41595); conditions: Compound concentration 10.0 uM
[36] = target: Alpha-1B adrenergic receptor (Homo sapiens) (UniProt P35368); conditions: Compound concentration 10.0 uM
[37] = target: Histamine H3 receptor (Homo sapiens) (UniProt Q9Y5N1); conditions: Compound concentration 10.0 uM
[38] = target: Dual specificity tyrosine-phosphorylation-regulated kinase 1B (Homo sapiens, UniProt Q9Y463); test: NanoBRET (SGC Frankfurt) (DYRK1B)
[39] = target: Dual specificity tyrosine-phosphorylation-regulated kinase 1A (Homo sapiens, UniProt Q13627); test: NanoBRET (SGC Frankfurt) (DYRK1A)
[40] = target: 5-hydroxytryptamine receptor 3A (Homo sapiens) (UniProt P46098); conditions: Compound concentration 10.0 uM

inhibition [1]: 9.31% | Ki (Histamine H1 receptor [2]; read-out: Ki): 2150 nM | inhibition [3]: -3.55% | inhibition [4]: -6.32% | inhibition [5]: 16.6% | IC50 [6]: 668 nM (not active) | inhibition [7]: 9.12% | inhibition [8]: -7.3% | inhibition [9]: 0.74% | inhibition [10]: 21.1% | inhibition (D(3) dopamine receptor): 12.8% | inhibition (D(2) dopamine receptor): 10.8% | inhibition [11]: 13.4% | inhibition [12]: -5.18% | inhibition [13]: 12.4% | IC50 [14]: 125 nM (not active) | inhibition [15]: 25.2% | IC50 [16]: 138 nM (not active) | inhibition [17]: 17.2% | inhibition [18]: 7.83% | inhibition [19]: -5.11% | inhibition [20]: 5.3% | inhibition [21]: 19.3% | inhibition [22]: -1.52% | inhibition [23]: 7.47% | IC50 [24]: 3.49 nM (active) | inhibition [25]: -7.22% | IC50 [26]: 1.98 nM (active) | inhibition [27]: 16.9% | inhibition (Histamine H1 receptor [28]): 54.9% | inhibition [29]: 3.82% | inhibition [30]: 8.33% | inhibition (Mu-type opioid receptor): 5.33% | inhibition [31]: 4.05% | inhibition [32]: -5.21% | inhibition [33]: 5.95% | inhibition [34]: 4% | inhibition (Histamine H2 receptor): 19.4% | inhibition [35]: -7.63% | inhibition [36]: 4.68% | inhibition [37]: 16.6% | IC50 [38]: 67 nM | IC50 [39]: 32 nM | inhibition [40]: 1.81%
SMILES: CN1CCN(C(=O)C(C)(C)c2ccc(C(=O)Nc3cn4cc(-c5ccncc5)ccc4n3)cc2)CC1 [T3-CLK]

inhibition [1]: 30.8% | Ki (Histamine H1 receptor [2]; read-out: Ki): 1900 nM | Ki (Histamine H1 receptor [2]; read-out: pKi (converted)): 1320 nM | inhibition [3]: 26.3% | inhibition [4]: 54.4% | inhibition [5]: 17.2% | IC50 [6]: > 10000 nM (not active) | inhibition [7]: 34.8% | inhibition [8]: 29.7% | inhibition [9]: 31.9% | inhibition [10]: 40.4% | inhibition (D(3) dopamine receptor): 78.9% | inhibition (D(2) dopamine receptor): 57.5% | inhibition [11]: 97.9% | inhibition [12]: 66.4% | inhibition [13]: 83% | IC50 [14]: > 10000 nM (not active) | inhibition [15]: 0.99% | IC50 [16]: > 10000 nM (not active) | inhibition [17]: 88.5% | inhibition [18]: 66.9% | inhibition [19]: 4.08% | inhibition [20]: 40.8% | inhibition [21]: 77.6% | inhibition [22]: 60.5% | inhibition [23]: 13.5% | IC50 [24]: > 10000 nM (not active) | inhibition [25]: 28% | IC50 [26]: > 10000 nM (not active) | inhibition [27]: 90% | inhibition (Histamine H1 receptor [28]): 83% | inhibition [29]: 6.55% | inhibition [30]: -0.51% | inhibition (Mu-type opioid receptor): 55.7% | inhibition [31]: 46.2% | inhibition [32]: 45.2% | inhibition [33]: 50.5% | inhibition [34]: 83.2% | inhibition (Histamine H2 receptor): 86.8% | inhibition [35]: 44.1% | inhibition [36]: 50.5% | inhibition [37]: 43.8% | IC50 [38]: > 10000 nM (not active) | IC50 [39]: > 10000 nM (not active) | inhibition [40]: 6.47%
SMILES: CN1CCN(C(=O)C(C)(C)c2ccc(C(=O)Nc3cn4cc(-c5cc(C(C)(C)C)cc(C(C)(C)C)c5)ccc4n3)cc2)CC1 [T3-CLK-N]
